In patent US7662626B2, “Cells and methods for estimation of effects on neurological dysfunction” (Kabushiki Kaisha Toshiba, priority 2005, dated 2010):

Legend:
Type in all cases: cell-based, mouse
[1] = system: Neuro2a transfected with aryl hydrocarbon receptor-expressing nucleic acid pcDNA4-rAhR; assay: Neurite outgrowth (cell morphology) of cell strains transfected with pcDNA4-rAhR; conditions: 10 nM, DF1:1 medium, 1 to 3 weeks; two selected AhR-transfected Neuro2a strains (FIG. 2)
Method: (3) Cells in which neurites outgrow this observed by adding ligand of the aryl hydrocarbon receptor, are selected from the cell strains obtained in (c). Cells into which the receptor-expressing nucleic acid is transfected are cultured in a conventional culture medium such as DF1:1 medium containing 10% fetal bovine serum with or without adding ligand of the aryl hydrocarbon receptor for 1 to 3 weeks. And morphological changes are compared between the two types of the cells described above. The number of the neurite from the cell, the length of the neurite, and the number of the cells in which the neurite is outgrown are compared when the morphology changes of the cell strain are used as indications. It is more preferable that comparison of increase of a proportion of a number of cells with neurite having a twofold length of a diameter of the each cells, to the total cells which are in contacted with a ligand of aryl hydrocarbon receptor. The cells in which the neurite is outgrown by adding ligand of the aryl hydrocarbon receptor are selected, by comparing the cells in which the receptor-expressing nucleic acid is transfected by adding the ligand of the aryl hydrocarbon receptor with the cells in which the receptor-expressing nucleic acid is transfected without adding the ligand of the aryl hydrocarbon receptor. […]

[2] = system: aryl hydrocarbon receptor; assay: CYP1A1 gene expression by reverse transcription PCR in selected cell strains; conditions: 30 nM, 24 hours, with vs without; both selected cell strains
From the text: (2) Cells functionally expressed the aryl hydrocarbon receptor protein are selected from the cells obtained in (c). A gene known to be able to induce expression of the gene through activation of the aryl hydrocarbon receptor is used as a marker as an indication of the selection. Examples of the gene include genes for CYP1A1, UGT glycosyltransferase 1 family, polypeptide A6 (UGT1A6) or glutathione-S-transferase (GST). The selection procedure includes, for example, culturing the cells to be selected in a conventional culture medium such as DF1:1 medium containing 10% of fetal bovine serum for 1 to 5 days; culturing the cells in a conventional culture medium such as DF1:1 medium containing 10% of fetal bovine serum for 1 week by adding a ligand of aryl hydrocarbon receptor; and extracting RNAs from the cells to detect the expression of the marker gene by a known RNA detection method such as northern hybridization and reverse transcription PCR. Alternatively, the protein translated from the marker gene is detected by a known detection method such as western blotting. The cells confirmed to induce the expression of the marker gene by this confirmation are selected.
After cultivating these cell strains in DF1:1 suppremented with or without 30 nM of 2,3,7,8-TCDD for 24 hours, total RNAs were extracted from the cells. An RNeasy kit was used for extraction of total RNA. […]

Neuro2a = assay: CYP1A1 gene expression by reverse transcription PCR in parent Neuro2a; conditions: 30 nM, 24 hours; parent Neuro2a (no AhR gene detected)
Method: After cultivating these cell strains in DF1:1 suppremented with or without 30 nM of 2,3,7,8-TCDD for 24 hours, total RNAs were extracted from the cells. An RNeasy kit was used for extraction of total RNA. The extracted RNA was reverse-transcripted using an oligo(dT) primer. Subsequently, expression of CYP1A1 gene was confirmed by 25 cycles of PCR comprising 1 cycle with denaturation of 94° C./30 second, annealing of 55° C./30 seconds and extension of 72° C./30 seconds. CYP1A1 gene is one of genes, of which expression thereof is induced by binding of the aryl hydrocarbon receptor activated by binding of a ligand to XRE (xenobiotic responsive element) on DNAs. A forward primer 5′-CCCACAgCACCACAAgAgATA (SEQ ID NO: 5) and a reverse primer 5′-AAgTAggAggCACAATgTC (SEQ ID NO: 6) were used as primers for PCR. As a result, expression of CYP1A1 gene was increased by adding 2,3,7,8-TCDD in both of two selected cell strains. While the same experiment was performed with respect to Neuro2a, no increase of the amount of expression of CYP1A1 gene was observed.

[3] = system: TH gene, Cdc42 gene and tau gene; assay: Marker gene expression (TH, Cdc42, tau) by reverse transcription PCR in selected cell strains; conditions: selected two cell strains cultured with vs without 2,3,7,8-TCDD (FIG. 3)
Method: Total RNAs were extracted with an RNeasy kit after culturing the selected two cell strains in DF1:1 medium supplemented with 2,3,7,8-TCDD, and cDNA was synthesized by a reverse transcription reaction. Subsequently, using cDNA synthesized above as a template and ExTaq (manufactured by Takara Bio Inc.), expression of the TH gene was confirmed by 25 cycles of PCR comprising one cycle with denaturation of 94° C./30 second, annealing of 60° C./30 seconds and extension of 72° C./30 seconds. Also, expression of the Cdc42 gene and tau gene was confirmed by 25 cycles of PCR comprising one cycle with denaturation of 94° C./30 second, annealing of 58° C./30 seconds and extension of 72° C./30 seconds. A forward primer 5′-CCACggTgTACTggTTCACT (SEQ ID NO: 7) and a reverse primer 5′-ggCATAgTTCCTgAgCTTgT (SEQ ID NO: 8) were used as primers for the TH gene; a forward primer 5′-gATACTgCAgggCAAgAgg (SEQ ID NO: 9) and a reverse primer 5′-CAggCACCCACTTTTCTTTC (SEQ ID NO: 10) were used as primers for the Cdc42 gene; and a forward primer 5′-TCCggAgAACgAAgCggCTACAgC (SEQ ID NO: 11) and a reverse primer 5′-TgCTgAggTgCCgTggAgATgTgT (SEQ ID NO: 12) were used as primers for the tau gene. As a result, the amounts of expression of the TH gene, Cdc42 gene and tau gene were increased in any of the two selected cell strains cultured with 2,3,7,8-TCDD as compared with the cell strains cultured without 2,3,7,8-TCDD (FIG. 3).

[4] = system: tau protein and TH protein; assay: Marker protein expression (tau, TH) by western blotting in selected cell strains; conditions: 10 nM, three weeks, with vs without; selected two cell strains (FIG. 4)
Method: After the selected two cell strains were cultured in DF1:1 medium supplemented with 10 nM of 2,3,7,8-TCDD for three weeks, the amounts of expression of the tau protein and TH protein were confirmed by extracting the proteins and by conducting western blotting with a tau protein antibody and TH protein antibody. The amounts of expression of the tau protein and TH protein were increased in any of the selected two cell strains as compared with neurotoxicity responsive cells cultured without adding 2,3,7,8-TCDD (FIG. 4).

Compound: Clc1cc2c(cc1Cl)Oc1cc(Cl)c(Cl)cc1O2 [2,3,7,8-TCDD, 2,3,7,8-tetrachlorodibenzo-p-dioxin]
- neurite outgrowth (morphology of the cell) [1]: particularly high proportion of neurite outgrowth
- expression of CYP1A1 gene [2]: increased
- amount of expression of CYP1A1 gene (Neuro2a): no increase
- amount of expression of the Cdc42 gene [3]: increased
- amount of expression of the TH gene [3]: increased
- amount of expression of the tau gene [3]: increased
- amount of expression of the TH protein [4]: increased
- amount of expression of the tau protein [4]: increased
